{"source": "patent US5571833A", "about": "“Tryptamine analogues, their synthesis and their use as 5-HT1 -like or 5-HT2 receptor agonists” (SmithKline Beecham plc, priority 1991, dated 1996)", "key": {"[1]": {"target": "T1, 5-HT1-like receptor (dog saphenous vein) (Canis lupus familiaris, UniProt P79250)", "T1 construct": "Helicoids of dog saphenous vein were set up; from tissue; host or cells: dog saphenous vein (helicoids)", "T1 sequence (P79250 whole entry)": "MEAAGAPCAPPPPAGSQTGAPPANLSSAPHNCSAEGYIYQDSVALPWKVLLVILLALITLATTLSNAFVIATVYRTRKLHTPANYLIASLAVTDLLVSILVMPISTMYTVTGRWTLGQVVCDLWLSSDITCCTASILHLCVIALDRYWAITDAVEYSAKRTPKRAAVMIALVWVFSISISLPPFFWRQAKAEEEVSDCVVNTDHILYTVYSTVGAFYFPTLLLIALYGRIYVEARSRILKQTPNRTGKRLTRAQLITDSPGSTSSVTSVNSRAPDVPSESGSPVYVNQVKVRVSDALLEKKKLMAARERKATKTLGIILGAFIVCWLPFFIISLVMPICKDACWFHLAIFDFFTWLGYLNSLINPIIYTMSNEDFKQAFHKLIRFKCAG", "test": "5-HT1-Like Receptor Screen, Dog Saphenous Vein (contraction of helicoids)", "type": "cell-based", "method": "5-HT1 -Like Receptor Screen\nHelicoids of dog saphenous vein were set up at 37° C. in modified Krebs solution at a resting force of 10 mN. The solution also contained 1 μmol/l each of ketanserin, prazosin, atropine and mepyramine, 6 μmol/l cocaine and 200 μmol/l ascorbate. Nearly […] contractions were measured with force transducers on a polygraph. The tissues were exposed twice to 5-hydroxytryptamine (5-HT) 2 μmol/l followed by washes. A cumulative concentration-effect curve to the test compound was determined, followed by a curve to 5-HT in the presence of the highest used concentration of test compound. Contractions caused by the test compound were compared with those caused by 5-HT. The intrinsic activity of the test compound was calculated as the ratio of the maximum test compound-induced effect over the effect caused by 2 μmol/l 5-HT. The EC50 of the test compound was estimated from the corresponding effect curve. When appropriate equilibrium dissociation constants Kp were estimated by the method of Marano & Kaumann (1976, J. Pharmacol. Exp. Ther. 198, 518-525)."}, "[2]": {"target": "T2, rabbit basilar artery (5-HT1-like receptor) (Oryctolagus cuniculus, UniProt P49144)", "T2 construct": "from tissue; host or cells: rabbit basilar artery, endothelium removed (ring segments)", "T2 sequence (P49144 whole entry)": "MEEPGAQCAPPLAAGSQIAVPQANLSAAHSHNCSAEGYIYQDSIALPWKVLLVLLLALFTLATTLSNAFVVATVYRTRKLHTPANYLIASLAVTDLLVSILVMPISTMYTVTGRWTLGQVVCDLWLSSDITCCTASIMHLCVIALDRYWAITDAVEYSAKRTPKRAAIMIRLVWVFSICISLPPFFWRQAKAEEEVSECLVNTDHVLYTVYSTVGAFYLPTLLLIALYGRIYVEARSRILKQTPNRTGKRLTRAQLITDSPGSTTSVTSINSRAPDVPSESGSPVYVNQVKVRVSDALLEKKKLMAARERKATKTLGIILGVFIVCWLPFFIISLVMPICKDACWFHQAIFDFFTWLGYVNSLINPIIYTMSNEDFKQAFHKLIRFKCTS", "test": "Rabbit Basilar Artery (isometric tension of isolated ring segments)", "type": "cell-based", "method": "Experiments were performed in intracranial arteries from rabbit isolated basilar artery in a similar method to one described previously (Parsons and Whalley, 1989. Eur J Pharmacol 174, 189-196.).\nIn brief, rabbits were killed by overdose with anaesthetic (sodium pentobarbitone). The whole brain was quickly removed and immersed in ice cold modified Kreb's solution and the basilar artery removed with the aid of a dissecting microscope. The Krebs solution was of the following composition (mM) Na^+ (120); K^+ (5); Ca^2+ (2.25); Mg^2+ (0.5); Cl^- (98.5); SO4^2^- (1); EDTA (0.04), equilibrated with 95% O2 /5% CO2. The endothelium was removed by a gentle rubbing of the lumen with a fine metal wire. Arteries were then cut into ring segments (ca 4-5 mm wide) and set up for recording of isometric tension in 50 ml tissue baths in modified Krebs solution with the additional supplement of (mM); […] (20); fumarate (10); pyruvate (5); L-glutamate (5) and glucose (10). The arteries were then placed under a resting force of 3-4 mN maintained at 37° C. and the solution bubbled with 95% O2 /5% CO2.\nAfter tests for initial reactivity with 90 mM KCl depolarising solution and for lack of acetylcholine-induced relaxation of 5-HT ([…]) precontraction, cumulative concentration-effect curves ([…]) to 5-HT were constructed in the presence of ascorbate […], cocaine […], indomethacin […], ketanserin […] and prazosin […].\nFollowing a 45-60 min wash period, cumulative concentration-effect curves to the test compounds or 5-HT (as a time match control) were constructed in the presence of ascorbate, indomethacin, cocaine, ketanserin and prazosin."}}, "note": "pEC50: −log10 of the molar value. Where a name gives a salt, the structure may show the parent alone.", "data": [{"compound": "CCCOc1ccc2[nH]cc(CCN(C)C)c2c1Cl", "note": "[3(i), 3-(2-Dimethylaminoethyl)-4-chloro-5-n-propyloxy-indole fumarate]", "values": [{"measurement": "pEC50", "setting": "[1]", "value": "4.82 to 6.70"}, {"measurement": "pEC50", "setting": "[2]", "value": "5.96 to 6.77"}]}, {"compound": "COc1ccc2[nH]cc(CCN(C)C)c2c1Cl", "note": "[6(i), 3-(2-Dimethylaminoethyl)-4-chloro-5-methoxyindole fumarate]", "values": [{"measurement": "pEC50", "setting": "[1]", "value": "4.82 to 6.70"}, {"measurement": "pEC50", "setting": "[2]", "value": "5.96 to 6.77"}]}, {"compound": "NCCc1c[nH]c2ccc(OCc3ccccc3)c(Cl)c12", "note": "[Example 1, 3-(2-amino-ethyl)-4-chloro-5-benzyloxyindole hydrochloride]", "values": [{"measurement": "pEC50", "setting": "[1]", "value": "4.82 to 6.70"}]}, {"compound": "NCCc1c[nH]c2ccc(O)c(Cl)c12", "note": "[Example 2, 3-(2-Aminoethyl)-4-chloro-5-hydroxyindole fumarate]", "values": [{"measurement": "pEC50", "setting": "[1]", "value": "4.82 to 6.70"}, {"measurement": "pEC50", "setting": "[2]", "value": "5.96 to 6.77"}]}, {"compound": "CCCOc1ccc2[nH]cc(CCN)c2c1Cl", "note": "[Example 3(ii), 3-(2-aminoethyl)-4-chloro-5-n-propyloxyindole fumarate]", "values": [{"measurement": "pEC50", "setting": "[1]", "value": "4.82 to 6.70"}]}, {"compound": "CN(C)CCc1c[nH]c2ccc(OCc3ccccc3)c(Cl)c12", "note": "[Example 4, 3-(2-Dimethylaminoethyl)-4-chloro-5-benzyloxyindole hydrochloride]", "values": [{"measurement": "pEC50", "setting": "[2]", "value": "5.96 to 6.77"}]}, {"compound": "CN(C)CCc1c[nH]c2ccc(O)c(Cl)c12", "note": "[Example 5, 3-(2-Dimethylaminoethyl)-4-chloro-5-hydroxyindole oxalate]", "values": [{"measurement": "pEC50", "setting": "[1]", "value": "4.82 to 6.70"}, {"measurement": "pEC50", "setting": "[2]", "value": "5.96 to 6.77"}]}, {"compound": "COc1ccc2[nH]cc(CCN)c2c1Cl", "note": "[Example 6(ii), 3-(2-aminoethyl)-4-chloro-5-methoxyindole fumarate]", "values": [{"measurement": "pEC50", "setting": "[1]", "value": "4.82 to 6.70"}]}, {"compound": "COc1ccc2[nH]cc(CCN(C)C)c2c1Br", "note": "[Example 7, 3-(2-Dimethylaminoethyl)-4-bromo-5-methoxyindole hemifumarate]", "values": [{"measurement": "pEC50", "setting": "[1]", "value": "4.82 to 6.70"}]}, {"compound": "CCCNCCc1c[nH]c2ccc(OC)c(Cl)c12", "note": "[Example 8, 3-(2-n-Propylaminoethyl)-4-chloro-5-methoxyindole fumarate]", "values": [{"measurement": "pEC50", "setting": "[1]", "value": "4.82 to 6.70"}]}, {"compound": "CNCCc1c[nH]c2ccc(OC)c(Cl)c12", "note": "[Example 9, 3-(2-Methylaminoethyl)-4-chloro-5-methoxyindole hemifumarate]", "values": [{"measurement": "pEC50", "setting": "[1]", "value": "4.82 to 6.70"}]}, {"compound": "CCCCOc1ccc2[nH]cc(CCN(C)C)c2c1Cl", "note": "[Example 11, 3-(2-Dimethylaminoethyl)-4-chloro-5-n-butyloxyindole hemifumarate]", "values": [{"measurement": "pEC50", "setting": "[1]", "value": "4.82 to 6.70"}, {"measurement": "pEC50", "setting": "[2]", "value": "5.96 to 6.77"}]}, {"compound": "CCCOc1ccc2[nH]cc(CCNC)c2c1Cl", "note": "[Example 13, 3-(2-Methylaminoethyl)-4-chloro-5-n-propoxyindole hemifumarate]", "values": [{"measurement": "pEC50", "setting": "[1]", "value": "4.82 to 6.70"}]}, {"compound": "CCCOc1ccc2[nH]cc(CCN(C)C)c2c1Br", "note": "[Example 14, 3-(2-Dimethylaminoethyl)-4-bromo-5-n-propoxyindole hemifumarate]", "values": [{"measurement": "pEC50", "setting": "[1]", "value": "4.82 to 6.70"}, {"measurement": "pEC50", "setting": "[2]", "value": "5.96 to 6.77"}]}, {"compound": "CC(C)Oc1ccc2[nH]cc(CCN)c2c1Cl", "note": "[Example 15, 3-(2-Aminoethyl)-4-chloro-5-iso-propoxyindole fumarate]", "values": [{"measurement": "pEC50", "setting": "[1]", "value": "4.82 to 6.70"}]}, {"compound": "CCCOc1ccc2[nH]cc(CCN)c2c1Br", "note": "[Example 16, 3-(2-Aminoethyl)-4-bromo-5-n-propoxyindole oxalate]", "values": [{"measurement": "pEC50", "setting": "[1]", "value": "4.82 to 6.70"}]}, {"compound": "CC(C)Oc1ccc2[nH]cc(CCN(C)C)c2c1Cl", "note": "[Example 17, 3-(2-Dimethylaminoethyl)-4-chloro-5-isopropoxyindole oxalate]", "values": [{"measurement": "pEC50", "setting": "[1]", "value": "4.82 to 6.70"}]}, {"compound": "CCCOc1ccc2[nH]cc(CCN)c2c1C", "note": "[Example 18b, 3-(2-aminoethyl)-4-methyl-5-n-propyloxyindole oxalate]", "values": [{"measurement": "pEC50", "setting": "[2]", "value": "5.96 to 6.77"}]}, {"compound": "CCCOc1ccc2[nH]cc(CCN(C)CC)c2c1Cl", "note": "[Example 19, 3-(2-(N-methyl-N-ethylamino)ethyl)-4-chloro-5-n-propyloxyindole oxalate]", "values": [{"measurement": "pEC50", "setting": "[2]", "value": "5.96 to 6.77"}]}, {"compound": "CCCOc1ccc2[nH]cc(CCN(C)C)c2c1I", "note": "[Example 20, 3-(2-(Dimethylamino)ethyl)-4-iodo-5-n-propyloxy indole oxalate]", "values": [{"measurement": "pEC50", "setting": "[2]", "value": "5.96 to 6.77"}]}, {"compound": "CN(C)CCc1c[nH]c2ccc(OCC(C)(C)C)c(Cl)c12", "note": "[Example 22, 3-(2-(Dimethylamino)ethyl)-4-chloro-5-neopentyloxy indole oxalate]", "values": [{"measurement": "pEC50", "setting": "[2]", "value": "5.96 to 6.77"}]}]}
